Test results taken from US20250195530A1, “POLQ INHIBITORS” (ASTRAZENECA AB, priority 2022, published 2025).
Where two headings read alike, the source gives them in different places.

Tested on: DLD-1 BRCA2−/− cells
Assay: Homologous recombination synthetic lethal inhibition of proliferation, DLD-1 BRCA2-/- (Cell Titre Glo 3D)
Format: cell-based
Conditions: Homo sapiens
In short: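 Luminescent Cell Titre Glo 3D readout, taken on day 12 for homologous-recombination-deficient DLD-1 BRCA2−/− and day 7 for the wild-type control, after compound refresh on day 6. Compounds spanned 10 μM to 0.51 nM in three-fold steps; IC50 defined as 50% reduction of average maximum signal.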

[1] = DLD-1, DLD-1 BRCA2 −/−, mean, read-out: POLQ PD Prolif Lumin BRCA2 −/− mean pIC50 (converted)
[2] = DLD-1, DLD-1 BRCA2 −/− cells, mean, read-out: POLQ PD Prolif Lumin BRCA2 −/− mean pIC50 (converted)
[3] = DLD-1, first proliferation column (c5), taken as DLD-1 BRCA2-/-, read-out: POLQ PD Prolif Lumin (converted)
[4] = DLD-1, first proliferation column (c5), DLD-1 BRCA2-/-, read-out: POLQ PD Prolif Lumin (converted)
[5] = DLD-1, proliferation, luminescence, taken as DLD-1 BRCA2-/-, read-out: POLQ PD Prolif Lumin (converted)

Q: Which IC50 [1] does the source give for `CC(CCOc1ccc(-c2nc3c(OC4(C)CC4)ncnc3n2Cc2cccc(F)c2)c(Cl)c1)C(=O)O` (racemic) [Example U6, 4-(3-chloro-4-(9-(3-fluorobenzyl)-6-(1-methylcyclopropoxy)-9H-purin-8-yl)phenoxy)-2-methylbutanoic acid] here?
A: 251 nM

Q: For `CNC(=O)c1cccc(-c2nc3c(OC4(C)CC4)ncnc3n2Cc2cc(C)ccn2)c1Cl` [Example T55, 2-chloro-N-methyl-3-(6-(1-methylcyclopropoxy)-9-((4-methylpyridin-2-yl)methyl)-9H-purin-8-yl)benzamide], which IC50 [2] is on record?
A: 631 nM

Q: How did the IC50 [3] turn out when `CNC(=O)C1CN(c2ccc(-c3nc4c(OC5(C)CC5)ncnc4n3Cc3cc(C)ccn3)c(Cl)c2)C1` [Example T341, 1-(3-chloro-4-(6-(1-methylcyclopropoxy)-9-((4-methylpyridin-2-yl)methyl)-9H-purin-8-yl)phenyl)-N-methylazetidine-3-carboxamide] was run?
A: 316 nM

Q: With `Cc1ccnc(Cn2c(-c3ccc(N4CC(O)C4)cc3Cl)nc3c(OC4(C)CC4)ncnc32)c1` [Example T115, 1-(3-chloro-4-(6-(1-methylcyclopropoxy)-9-((4-methylpyridin-2-yl)methyl)-9H-purin-8-yl)phenyl)azetidin-3-ol] as the compound, how does the IC50 [4] read?
A: 200 nM

Q: How did the IC50 [1] turn out when `COc1ccc(F)cc1Cn1c(-c2cccc(OCC[C@H](C)C(=O)O)c2Cl)nc2c(OC3(C)CC3)ncnc21` [Example U72, (S)-4-(2-chloro-3-(9-(5-fluoro-2-methoxybenzyl)-6-(1-methylcyclopropoxy)-9H-purin-8-yl)phenoxy)-2-methylbutanoic acid] was run?
A: 1.58 nM

Q: With `Cc1ccnc(Cn2c(-c3ccc(C(=O)NC[C@H](C)F)cc3Cl)nc3c(OC4(C)CC4)ncnc32)c1` [Example T190, (S)-3-chloro-N-(2-fluoropropyl)-4-(6-(1-methylcyclopropoxy)-9-((4-methylpyridin-2-yl)methyl)-9H-purin-8-yl)benzamide] as the compound, how does the IC50 [4] read?
A: 398 nM

Q: `CC1(Oc2ncnc3c2nc(-c2ccc(CC(N)=O)cc2Cl)n3CCc2ccccc2)CC1` [Example T102, 2-(3-chloro-4-(6-(1-methylcyclopropoxy)-9-phenethyl-9H-purin-8-yl)phenyl)acetamide] was tested. Which IC50 [2] did it give?
A: 1580 nM

Q: `Cc1ccnc(Cn2c(-c3ccc(OCCN4CCNC(=O)C4)cc3Cl)nc3c(OC4(C)CC4)ncnc32)c1` [Example T499, 4-(2-(3-chloro-4-(6-(1-methylcyclopropoxy)-9-((4-methylpyridin-2-yl)methyl)-9H-purin-8-yl)phenoxy)ethyl)piperazin-2-one] was tested. Which IC50 [4] did it give?
A: 316 nM

Q: `Cc1ccnc(Cn2c(-c3ccc(OCC(=O)NC(C)(C)CO)cc3Cl)nc3c(OC4(C)CC4)ncnc32)c1` [Example T519, 2-(3-chloro-4-(6-(1-methylcyclopropoxy)-9-((4-methylpyridin-2-yl)methyl)-9H-purin-8-yl)phenoxy)-N-(1-hydroxy-2-methylpropan-2-yl)acetamide] was tested. Which IC50 [4] did it give?
A: 316 nM

Q: Which IC50 (DLD-1, first proliferation column, DLD-1 BRCA2-/-, read-out: POLQ PD Prolif Lumin (converted)) does the source give for `Cc1ccnc(Cn2c(-c3ccc(OCC(=O)N4CC[C@@](C)(O)C4)cc3Cl)nc3c(OC4(C)CC4)ncnc32)c1` [Example T581, (R)-2-(3-chloro-4-(6-(1-methylcyclopropoxy)-9-((4-methylpyridin-2-yl)methyl)-9H-purin-8-yl)phenoxy)-1-(3-hydroxy-3-methylpyrrolidin-1-yl)ethan-1-one] here?
A: 501 nM

Q: Which IC50 [1] does the source give for `CC1(Oc2ncnc3c2nc(-c2ccc(OCCCC(C)(C)C(=O)O)cc2Cl)n3Cc2ccccc2C#N)CC1` [Example U21, 5-(3-chloro-4-(9-(2-cyanobenzyl)-6-(1-methylcyclopropoxy)-9H-purin-8-yl)phenoxy)-2,2-dimethylpentanoic acid] here?
A: 158 nM

Q: For `Cc1ccnc(Cn2c(-c3ccc(CC(=O)NCC(C)(C)O)cc3Cl)nc3c(OC4(C)CC4)ncnc32)c1` [Example T515, 2-(3-chloro-4-(6-(1-methylcyclopropoxy)-9-((4-methylpyridin-2-yl)methyl)-9H-purin-8-yl)phenyl)-N-(2-hydroxy-2-methylpropyl)acetamide], which IC50 [4] is on record?
A: 631 nM

Q: For `Cc1ccnc(Cn2c(-c3ccc(OCC(=O)N(C)CCC#N)cc3Cl)nc3c(OC4(C)CC4)ncnc32)c1` [Example T430, 2-(3-chloro-4-(6-(1-methylcyclopropoxy)-9-((4-methylpyridin-2-yl)methyl)-9H-purin-8-yl)phenoxy)-N-(2-cyanoethyl)-N-methylacetamide], which IC50 [5] is on record?
A: 501 nM

Q: Which IC50 [4] does the source give for `Cc1ccnc(Cn2c(-c3ccc(OCCNS(C)(=O)=O)cc3Cl)nc3c(OC4(C)CC4)ncnc32)c1` [Example T144, N-(2-(3-chloro-4-(6-(1-methylcyclopropoxy)-9-((4-methylpyridin-2-yl)methyl)-9H-purin-8-yl)phenoxy)ethyl)methanesulfonamide] here?
A: 158 nM

Q: How did the IC50 [4] turn out when `CNC(=O)COc1ccc(Cl)c(-c2nc3c(OC4(C)CC4)ncnc3n2Cc2cc(C)ccn2)c1` [Example T122, 2-(4-chloro-3-(6-(1-methylcyclopropoxy)-9-((4-methylpyridin-2-yl)methyl)-9H-purin-8-yl)phenoxy)-N-methylacetamide] was run?
A: 6310 nM

Q: For `CC1(Oc2ncnc3c2nc(-c2cccc(OCCCC(=O)NS(C)(=O)=O)c2Cl)n3Cc2cccc(Cl)c2)CC1` [Example T325, 4-(2-chloro-3-(9-(3-chlorobenzyl)-6-(1-methylcyclopropoxy)-9H-purin-8-yl)phenoxy)-N-(methylsulfonyl)butanamide], which IC50 [3] is on record?
A: 316 nM

Q: Which IC50 [5] does the source give for `CC(=O)N1CC[C@@H](Oc2ccc(-c3nc4c(OC5(C)CC5)ncnc4n3Cc3cc(C)ccn3)c(Cl)c2)C1` [Example T472, (R)-1-(3-(3-chloro-4-(6-(1-methylcyclopropoxy)-9-((4-methylpyridin-2-yl)methyl)-9H-purin-8-yl)phenoxy)pyrrolidin-1-yl)ethan-1-one] here?
A: 200 nM

Q: For `Cc1ccnc(Cn2c(-c3ccc(OCCN4CCCC4=O)cc3Cl)nc3c(OC4(C)CC4)ncnc32)c1` [Example T469, 1-(2-(3-chloro-4-(6-(1-methylcyclopropoxy)-9-((4-methylpyridin-2-yl)methyl)-9H-purin-8-yl)phenoxy)ethyl)pyrrolidin-2-one], which IC50 [5] is on record?
A: 158 nM

Q: `CC1(Oc2ncnc3c2nc(-c2ccc(CC(N)=O)cc2Cl)n3Cc2nnc(C3CC3)o2)CC1` [Example T21, 2-(3-chloro-4-(9-((5-cyclopropyl-1,3,4-oxadiazol-2-yl)methyl)-6-(1-methylcyclopropoxy)-9H-purin-8-yl)phenyl)acetamide] was tested. Which IC50 [2] did it give?
A: > 10000 nM

Q: With `CC(CCOc1ccc(-c2nc3c(OC4(C)CC4)ncnc3n2Cc2cccc(C(C)(F)F)c2)c(Cl)c1)C(=O)O` (single isomer, unassigned) [Example T545, 4-(3-chloro-4-(9-(3-(1,1-difluoroethyl)benzyl)-6-(1-methylcyclopropoxy)-9H-purin-8-yl)phenoxy)-2-methylbutanoic acid] as the compound, how does the IC50 [4] read?
A: 1000 nM

Q: How did the IC50 [2] turn out when `CNC(=O)Nc1ccc(-c2nc3c(OC4(C)CC4)ncnc3n2Cc2cc(C)ccn2)c(Cl)c1` [Example T66, 1-(3-chloro-4-(6-(1-methylcyclopropoxy)-9-((4-methylpyridin-2-yl)methyl)-9H-purin-8-yl)phenyl)-3-methylurea] was run?
A: 398 nM

Q: `CC1(Oc2ncnc3c2nc(-c2c(F)ccc(OCCC(=O)O)c2Cl)n3Cc2cccc(Cl)c2)CC1` [Example U66, 3-(2-chloro-3-(9-(3-chlorobenzyl)-6-(1-methylcyclopropoxy)-9H-purin-8-yl)-4-fluorophenoxy)propanoic acid] was tested. Which IC50 [1] did it give?
A: 200 nM

Q: `CC1(Oc2ncnc3c2nc(-c2ccc(CC(N)=O)cc2Cl)n3Cc2noc(C(C)(C)C)n2)CC1` [Example T71, 2-(4-(9-((5-(tert-butyl)-1,2,4-oxadiazol-3-yl)methyl)-6-(1-methylcyclopropoxy)-9H-purin-8-yl)-3-chlorophenyl)acetamide] was tested. Which IC50 [2] did it give?
A: 7940 nM

Q: With `Cc1ccnc(Cn2c(-c3ccc(C(=O)N4CC(F)C4)cc3Cl)nc3c(OC4(C)CC4)ncnc32)c1` [Example T153, (3-chloro-4-(6-(1-methylcyclopropoxy)-9-((4-methylpyridin-2-yl)methyl)-9H-purin-8-yl)phenyl)(3-fluoroazetidin-1-yl)methanone] as the compound, how does the IC50 [4] read?
A: 501 nM

Q: How did the IC50 [2] turn out when `Cc1cnn(C)c1Cn1c(-c2ccc(CC(N)=O)cc2Cl)nc2c(OC3(C)CC3)ncnc21` [Example T31, 2-(3-chloro-4-(9-((1,4-dimethyl-1H-pyrazol-5-yl)methyl)-6-(1-methylcyclopropoxy)-9H-purin-8-yl)phenyl)acetamide] was run?
A: > 10000 nM

Q: For `Cc1noc(C)c1Cn1c(-c2ccc(CC(N)=O)cc2Cl)nc2c(OC3(C)CC3)ncnc21` [Example T27, 2-(3-chloro-4-(9-((3,5-dimethylisoxazol-4-yl)methyl)-6-(1-methylcyclopropoxy)-9H-purin-8-yl)phenyl)acetamide], which IC50 [2] is on record?
A: > 10000 nM

Q: With `C[C@H](Oc1cccc(-c2nc3c(OC4(C)CC4)ncnc3n2Cc2cccc(Cl)c2)c1Cl)C(=O)O` [Example T90, (S)-2-(2-chloro-3-(9-(3-chlorobenzyl)-6-(1-methylcyclopropoxy)-9H-purin-8-yl)phenoxy)propanoic acid] as the compound, how does the IC50 [2] read?
A: 2000 nM

Q: With `Cc1ccnc(Cn2c(-c3ccc(OCC(=O)NC[C@H](C)F)cc3Cl)nc3c(OC4(C)CC4)ncnc32)c1` [Example T327, (S)-2-(3-chloro-4-(6-(1-methylcyclopropoxy)-9-((4-methylpyridin-2-yl)methyl)-9H-purin-8-yl)phenoxy)-N-(2-fluoropropyl)acetamide] as the compound, how does the IC50 [3] read?
A: 200 nM

Q: Which IC50 [1] does the source give for `CC(COc1ccc(-c2nc3c(OC4(C)CC4)ncnc3n2Cc2ccccc2C#N)c(Cl)c1)CC(=O)O` (racemic) [Example U25, 4-(3-chloro-4-(9-(2-cyanobenzyl)-6-(1-methylcyclopropoxy)-9H-purin-8-yl)phenoxy)-3-methylbutanoic acid] here?
A: 398 nM
